Structures are written as SMILES. In brackets after ≈: the same amount, converted by molar mass.

Holding throughout (type): physicochemical
Data set [1] is described as follows: Decomposition point (DP) by DSC. The following applies: sealed aluminum pan, 40 to 400°C, 10°C/min, nitrogen. As to the method:
The decomposition point (DP) is determined using a TA Instruments DSC Q100 apparatus, the compound being incorporated into a sealed aluminum pan. Analysis conditions are as following: Temperature range from 40 to 400°C, heating rate 10°C/min, nitrogen flow of 50 ml/min. Values are determined by single measurement.
On the technique in general: In DSC, transitions show as peaks or steps in heat flow.

Data set [2] in a line: UV/vis: λmax and ε in CH2Cl2 by UV spectrophotometer. The following applies: dissolved in CH2Cl2. On the procedure: λmax (lambda max) and ε (epsilon) values of the compounds of formula (I) are determined dissolved in CH2Cl2 using an UV spectrophotometer. These values are obtained by balancing the measurements performed on compound solutions at three different concentrations.

Data set [3] can be described thus: Solubility in organic solvents. As to conditions: for Solubility in Dowanol PMA: Dowanol PMA (CH3COO2CH(CH3)CH2OCH3).

Turning to `CCCC(=O)Oc1c(-c2nc3ccccc3c(=O)o2)sc2ccccc12` [(Ig)], the “DP (decomposition point)” value in data set [1] is 352 °C. Besides, in data set [2], the εmax amounted to 26400 L/mol/cm and the λmax is listed as 337 nm. Moreover, in data set [3], the Solubility in xylene is < 10 mg/mL.
Regarding `CCCCCCCCCCCCOc1c(-c2nc3ccccc3c(=O)o2)sc2ccccc12` [(Ic)], the “DP (decomposition point)” value in data set [1] amounted to 381 °C. For the same compound, in data set [2], the εmax was 21800 L/mol/cm and the λmax is 342 nm. This compound came in with a Solubility in xylene in data set [3] of 120 mg/mL (≈ 259 mM).
`CCCCC(CC)COc1c(-c2nc3ccccc3c(=O)o2)sc2ccccc12` (stereo not drawn) [(Ib)]: in data set [1], the “DP (decomposition point)” value turned out to be 385 °C. In addition, in data set [2], the εmax is 26200 L/mol/cm and the λmax was 341 nm. Further, in data set [3], the “Solubility in Dowanol PMA” value was > 50 mg/mL and the Solubility in xylene is > 100 mg/mL.
Consider `CCCCC(CC)C(=O)Oc1c(-c2nc3ccccc3c(=O)o2)sc2ccccc12` (stereo not drawn) [(Ih)], for which the “DP (decomposition point)” value in data set [1] amounted to 375 °C. In data set [2], this compound registered a εmax of 24100 L/mol/cm and a λmax of 337 nm. In data set [3], the Solubility in xylene came to 10 mg/mL (≈ 23.7 mM).
In the case of `CCCCCCCCOc1c(-c2nc3ccccc3c(=O)o2)sc2ccccc12` [(Ia)], the “DP (decomposition point)” value in data set [1] turned out to be 370 °C. Further, in data set [2], the εmax worked out at 26000 L/mol/cm and the λmax is on record as 341 nm. For the same compound, in data set [3], the “Solubility in Dowanol PMA” value is > 50 mg/mL and the Solubility in xylene was > 100 mg/mL.
As to `CC(=O)Oc1c(-c2nc3ccccc3c(=O)o2)sc2ccccc12` [(If)], the “DP (decomposition point)” value in data set [1] amounted to 351 °C. Further, in data set [2], the εmax stood at 28700 L/mol/cm and the λmax is 337 nm. Moreover, the Solubility in xylene in data set [3] is < 10 mg/mL.
For `O=c1oc(-c2sc3ccccc3c2Cl)nc2ccccc12` [(Ij)], in that order: ≥ 390 °C, 29000 L/mol/cm, 338 nm and < 5 mg/mL.
As to `CCCCCCCCCCCCCCCCOc1c(-c2nc3ccccc3c(=O)o2)sc2ccccc12` [(Id)], the “DP (decomposition point)” value in data set [1] worked out at 384 °C. In addition, in data set [2], the εmax worked out at 31900 L/mol/cm and the λmax worked out at 341 nm. The compound further displayed a Solubility in xylene in data set [3] of 100 mg/mL (≈ 192 mM).
`O=C(Oc1c(-c2nc3ccccc3c(=O)o2)sc2ccccc12)c1ccccc1` [(Ii)]: in data set [1], the “DP (decomposition point)” value was ≥ 400 °C. Besides, in data set [2], the εmax is 25500 L/mol/cm and the λmax is reported as 338 nm. Moreover, the Solubility in xylene in data set [3] was < 10 mg/mL.
As for `CCCCCCCCCCCc1c(-c2nc3ccccc3c(=O)o2)sc2ccc(C)cc12` [(Ie)], the “DP (decomposition point)” value in data set [1] was ≥ 400 °C. Also, in data set [2], the εmax is 25900 L/mol/cm and the λmax is on record as 343 nm. Also, the Solubility in xylene in data set [3] was determined as 40 mg/mL (≈ 89.4 mM).
